Read-outs that look alike come from different tables or passages of the source.
Tests used:
[1] = oral biological activity: % uterine weight increase compared to vehicle; assay type: in vivo, rat; details: for change in vivo at 0.03 mg / change in vivo at 0.01 mg: Rattus norvegicus, oral; for change in vivo at 0.03 mg: 30.0 μg; for change in vivo at 0.01 mg: 10.0 μg
Protocol: Exemplary compounds were tested for: oral biological activity (Table 1); binding to human carbonic anhydrase II (hCA 2) (Table 2); and, for some compounds enzymatic saponification (Table 3).

[2] = target: human carbonic anhydrase II (hCA 2) (Homo sapiens, UniProt P00918); test: Human Carbonic Anhydrase II inhibition; assay type: biochemical

Row | Structure (SMILES) | change in vivo at 0.03 mg [1] | IC50 ([2]; read-out: hCAII (IC50 nM)) | change in vivo at 0.01 mg [1] | IC50 [2] | oral activity ([1]; oral dose, comparison in words)
1 | C[C@]12CCC3c4ccc(O)cc4CCC3C1CC[C@@H]2OC(=O)c1cccc(S(N)(=O)=O)c1 (stereo partly drawn) [Compound 1A, (13S, 17S)-3-hydroxy-13-methyl-7,8,9,11,12,13,14,15,16,17-decahydro-6H-cyclopenta[a]phenanthren-17-yl 3-sulfamoylbenzoate, reference compound] | 212% | 258 nM |  |  | 
2 | C[C@]12CCC3c4ccc(O)cc4CCC3C1CC[C@@H]2OC(=O)COC(=O)c1cccc(S(N)(=O)=O)c1 (stereo partly drawn) [Compound 2A, 2-((13S,17S)-3-hydroxy-13-methyl-7,8,9,11,12,13,14,15,16,17-decahydro-6H-cyclopenta[a]phenanthren-17-yloxy)-2-oxoethyl 3-sulfamoylbenzoate] |  | 3500 nM |  |  | 
3 | C[C@]12CCC3c4ccc(O)cc4CCC3C1CC[C@@H]2OC(=O)COC(=O)c1ccc(S(N)(=O)=O)cc1 (stereo partly drawn) [Compound 3A, 2-((13S,17S)-3-hydroxy-13-methyl-7,8,9,11,12,13,14,15,16,17-decahydro-6H-cyclopenta[a]phenanthren-17-yloxy)-2-oxoethyl 4-sulfamoylbenzoate] | 197% | 250 nM |  |  | 
4 | C[C@]12CCC3c4ccc(O)cc4CCC3C1CC[C@@H]2OC(=O)/C=C/C(=O)NCc1ccc(S(N)(=O)=O)cc1 (stereo partly shown) [Compound 4A] | 164% | 450 nM |  |  | 
5 | C[C@]12CCC3c4ccc(O)cc4CCC3C1CC[C@@H]2OC(=O)CNC(=O)c1cccc(S(N)(=O)=O)c1 (stereo partly drawn) [Compound 5A, (13S,17S)-3-hydroxy-13-methyl-7,8,9,11,12,13,14,15,16,17-decahydro-6H-cyclopenta[a]phenanthren-17-yl 2-(3-sulfamoylbenzamido)-acetate] | 171% | 42 nM |  |  | 
6 | C[C@]12CCC3c4ccc(O)cc4CCC3C1CC[C@@H]2OC(=O)CNC(=O)c1ccc(S(N)(=O)=O)cc1 (stereo partly drawn) [Compound 6A, (13S,17S)-3-hydroxy-13-methyl-7,8,9,11,12,13,14,15,16,17-decahydro-6H-cyclopenta[a]phenanthren-17-yl 2-(4-sulfamoylbenzamido)acetate] |  | 65 nM | 152% |  | 
7 | C[C@]12CCC3c4ccc(O)cc4CCC3C1CC[C@@H]2OC(=O)[C@@H]1CCCN1C(=O)c1cccc(S(N)(=O)=O)c1 (stereo partly drawn) [Compound 7A, (2S)-((13S,17S)-3-hydroxy-13-methyl-7,8,9,11,12,13,14,15,16,17-decahydro-6H-cyclopenta[a]-phenanthren-17-yl) 1-(3-sulfamoylbenzoyl)pyrrolidine-2-carboxylate] |  | 300 nM | 108% |  | 
8 | C[C@]12CCC3c4ccc(O)cc4CCC3C1CC[C@@H]2OC(=O)C(F)(F)S(N)(=O)=O (stereo partly drawn) [Compound 9A, (13S,17S)-3-hydroxy-13-methyl-7,8,9,11,12,13,14,15,16,17-decahydro-6H-cyclopenta[a]phenanthren-17-yl 2,2-difluoro-2-sulfamoylacetate] |  | 85 nM | 218% |  | 
9 | C[C@]12CCC3c4ccc(O)cc4CCC3C1CC[C@@H]2OC(=O)CS(N)(=O)=O (stereo partly drawn) [Compound 10A, (13S,17S)-3-hydroxy-13-methyl-7,8,9,11,12,13,14,15,16,17-decahydro-6H-cyclopenta[a]phenanthren-17-yl 2-sulfamoylacetate] |  | 510 nM | 177% |  | 
10 | C[C@H](NC(=O)c1cccc(S(N)(=O)=O)c1)C(=O)O[C@H]1CCC2C3CCc4cc(O)ccc4C3CC[C@@]21C (stereo partly drawn) [Compound 11A, (2S)-((13S,17S)-3-hydroxy-13-methyl-7,8,9,11,12,13,14,15,16,17-decahydro-6H-cyclopenta[a]-phenanthren-17-yl) 2-(3-sulfamoylbenzamido)propanoate] |  | 310 nM | 170% |  | 
11 | C[C@H](NC(=O)c1ccc(S(N)(=O)=O)cc1)C(=O)O[C@H]1CCC2C3CCc4cc(O)ccc4C3CC[C@@]21C (stereo partly drawn) [Compound 12A, (2S)-((13S,17S)-3-hydroxy-13-methyl-7,8,9,11,12,13,14,15,16,17-decahydro-6H-cyclopenta[a]-phenanthren-17-yl) 2-(4-sulfamoylbenzamido)propanoate] | 271% |  |  | 250 nM | 
12 | C[C@]12CCC3c4ccc(O)cc4CCC3C1CC[C@@H]2OC(=O)CN(Cc1cccc(S(N)(=O)=O)c1)Cc1cccc(S(N)(=O)=O)c1 (stereo partly drawn) [Compound 13A, (13S,17S)-3-hydroxy-13-methyl-7,8,9,11,12,13,14,15,16,17-decahydro-6H-cyclopenta[a]phenanthren-17-yl 2-(bis(3-sulfamoylbenzyl)amino)acetate] | 136% | 500 nM |  |  | 
13 | C[C@]12CCC3c4ccc(O)cc4CCC3C1CC[C@@H]2OC(=O)CNCc1cccc(S(N)(=O)=O)c1 (stereo partly drawn) [Compound 14A, (13S,17S)-3-hydroxy-13-methyl-7,8,9,11,12,13,14,15,16,17-decahydro-6H-cyclopenta[a]phenanthren-17-yl 2-(3-sulfamoylbenzylamino)acetate] | 187% | 450 nM |  |  | 
14 | C[C@]12CCC3c4ccc(O)cc4CCC3C1CC[C@@H]2OC(=O)COc1ccc(S(N)(=O)=O)cc1 (stereo partly drawn) [Compound 15A, (13S,17S)-3-hydroxy-13-methyl-7,8,9,11,12,13,14,15,16,17-decahydro-6H-cyclopenta[a]phenanthren-17-yl 2-(4-sulfamoylphenoxy)acetate] | 152% | 105 nM |  |  | 
15 | C[C@]12CCC3c4ccc(O)cc4CCC3C1CC[C@@H]2OC(=O)C1(S(N)(=O)=O)CC1 (stereo partly drawn) [Compound 16A, (13S,17S)-3-hydroxy-13-methyl-7,8,9,11,12,13,14,15,16,17-decahydro-6H-cyclopenta[a]phenanthren-17-yl 1-sulfamoylcyclopropanecarboxylate] | 314% | > 10000 nM |  |  | comparable high oral activity
16 | C[C@]12CCC3c4ccc(O)cc4CCC3C1CC[C@@H]2OC(=O)COCc1ccc(S(N)(=O)=O)cc1 (stereo partly drawn) [Compound 17A, (13S,17S)-3-hydroxy-13-methyl-7,8,9,11,12,13,14,15,16,17-decahydro-6H-cyclopenta[a]phenanthren-17-yl 2-(4-sulfamoylbenzyloxy)acetate] | 133% | 125 nM |  |  | 
17 | C[C@@H](C(=O)O[C@H]1CCC2C3CCc4cc(O)ccc4C3CC[C@@]21C)N(C)C(=O)c1ccc(S(N)(=O)=O)cc1 (stereo partly drawn) [Compound 18A, [(13S,17S)-3-hydroxy-13-methyl-6,7,8,9,11,12,14,15,16,17-decahydrocyclopenta[a]phenanthren-17-yl](2S)-2-[methyl-(4-sulfamoylbenzoyl)amino]propanoate] |  |  | 209% | 203 nM | 
18 | CC(C)[C@H](NC(=O)c1ccc(S(N)(=O)=O)cc1)C(=O)O[C@H]1CCC2C3CCc4cc(O)ccc4C3CC[C@@]21C (stereo partly drawn) [Compound 19A, [(13S,17S)-3-hydroxy-13-methyl-6,7,8,9,11,12,14,15,16,17-decahydrocyclopenta[a]phenanthren-17-yl] (2S)-3-methyl-2-[(4-sulfamoylbenzoyl)amino]butanoate] |  | 202 nM | 267% |  | 
19 | CC(C)(NC(=O)c1ccc(S(N)(=O)=O)cc1)C(=O)O[C@H]1CCC2C3CCc4cc(O)ccc4C3CC[C@@]21C (stereo partly drawn) [Compound 20A, [(13S,17S)-3-hydroxy-13-methyl-6,7,8,9,11,12,14,15,16,17-decahydrocyclopenta[a]phenanthren-17-yl] 2-methyl-2-[(4-sulfamoylbenzoyl)amino]propanoate] |  |  | 97.1% | 232 nM | 
20 | C[C@]12CCC3c4ccc(O)cc4CCC3C1CC[C@@H]2OC(=O)[C@H](Cc1ccccc1)NC(=O)c1ccc(S(N)(=O)=O)cc1 (stereo partly drawn) [Compound 21A, [(13S,17S)-3-hydroxy-13-methyl-6,7,8,9,11,12,14,15,16,17-decahydrocyclopenta[a]phenanthren-17-yl] (2S)-3-phenyl-2-[(4-sulfamoylbenzoyl)amino]propanoate] |  | 100 nM | 117% |  | 
21 | C[C@]12CCC3c4ccc(O)cc4CCC3C1CC[C@@H]2OC(=O)[C@@H]1CCCN1c1ccc(S(N)(=O)=O)cc1 (stereo partly drawn) [Compound 22A, [(13S,17S)-3-hydroxy-13-methyl-6,7,8,9,11,12,14,15,16,17-decahydrocyclopenta[a]phenanthren-17-yl] 1-(4-sulfamoylphenyl)pyrrolidine-2-carboxylate] |  | 198 nM | 91.6% |  | 
22 | C[C@]12CCC3c4ccc(O)cc4CCC3C1CC[C@@H]2OC(=O)[C@@H]1CCCN1Cc1ccc(S(N)(=O)=O)cc1 (stereo partly drawn) [Compound 23A, [(13S,17S)-3-hydroxy-13-methyl-6,7,8,9,11,12,14,15,16,17-decahydrocyclopenta[a]phenanthren-17-yl] 1-[(4-sulfamoylphenyl)methyl]pyrrolidine-2-carboxylate] |  | 129 nM | 272% |  | 
23 | C[C@]12CC[C@@H]3c4ccc(O)cc4CC[C@H]3[C@@H]1CC[C@@H]2O [Compound E2, estradiol, reference compound] |  |  | 118% |  | 
24 | C#C[C@]1(O)CC[C@H]2[C@@H]3CCc4cc(O)ccc4[C@H]3CC[C@@]21C [EE, ethinyl estradiol, reference compound] |  |  | 154% |  | 
